Experimental findings from patent US20100016328A1, “PTERIN ANALOGS” (BioMarin Pharmaceutical, Inc., priority 2007, published 2010) are described below.

This data set can be described thus: Pharmacokinetics of BH4 and BH4 analogs given by oral gavage to monkeys. Format: in vivo. Particulars: fasted cynomolgus monkeys; for AUC0-t / Cmax: equivalent of 80 mg of BH4, n=3, plasma over 25 hours, standard deviation in parenthesis; for Tmax: equivalent of 80 mg of BH4, n=3, standard deviation in parenthesis. As to the method:
Fasted cynomolgus monkeys were given BH4 and BH4 analogs by oral gavage (n=3), such that the amount of the analog administered was the equivalent of 80 mg of BH4. The plasma concentrations of the BH4, when administered directly, or the analogs was measured at various time points over a 25 hour period. The PK data is also shown in the following table, wherein the number in parenthesis is the standard deviation.

Counter-ions that a name gives are not always drawn. Like-named read-outs stand apart in the source and are kept apart here.

For the compound `C[C@H](O)[C@H](O)[C@H]1CNc2nc(N)[nH]c(=O)c2N1C(=O)[C@@H]1CCCN1` (stereo in doubt) [Example 16, 2-Amino-6-(1,2-dihydroxy-propyl)-5-(pyrrolidine-2-carbonyl)-5,6,7,8-tetrahydro-1H-pteridin-4-one dihydrochloride], the AUC0-t is 88.1 (31.5) ng hr/mL, the Cmax is given as 7.63 (2.7) ng/mL and the Tmax is 6.0 (0)^ hr.
In the same order, the values of `C[C@H](O)[C@H](O)[C@H]1CNc2nc(N)[nH]c(=O)c2N1C(=O)[C@@H](N)CCCCN` (stereo in doubt) [Example 15, 2-Amino-5-(2,6-diamino-hexanoyl)-6-(1,2-dihydroxy-propyl)-5,6,7,8-tetrahydro-1H-pteridin-4-one dihydrochloride] are 36.8 (37.6) ng hr/mL, 5.7 (1.7) ng/mL and 12.0 (10.4) hr.
As to `CC[C@H](C)[C@H](N)C(=O)N1c2c(nc(N)[nH]c2=O)NC[C@@H]1[C@@H](O)[C@H](C)O` (stereo in doubt) [Example 14, 2-Amino-5-(2-amino-3-methyl-pentanoyl)-6-(1,2-dihydroxy-propyl)-5,6,7,8-tetrahydro-1H-pteridin-4-one hydrochloride], the AUC0-t was 63.2 (25.6) ng hr/mL, the Cmax is listed as 5.23 (2.1) ng/mL and the Tmax is listed as 12.1 (11.9) hr.
In the same order, the values of `CC(C)[C@H](N)C(=O)N1c2c(nc(N)[nH]c2=O)NC[C@@H]1[C@@H](O)[C@H](C)O` (stereo in doubt) [Example 13, 2-Amino-5-(2-amino-3-methyl-butyryl)-6-(1,2-dihydroxy-propyl)-5,6,7,8-tetrahydro-1H-pteridin-4-one hydrochloride] are 13.7 ng·h/mL, 2.2 ng/mL and 6.0 h.
For `C[C@H](OC(=O)[C@@H](N)CCCCN)[C@H](OC(=O)[C@@H](N)CCCCN)[C@H]1CNc2nc(N)[nH]c(=O)c2N1` [Example 11, 2,6-Diamino-hexanoic acid 2-(2-amino-4-oxo-3,4,5,6,7,8-hexahydro-pteridin-6-yl)-2-(2,6-diamino-hexanoyloxy)-1-methyl-ethyl ester pentahydrochloride], the AUC0-t was 617 (336) ng hr/mL, the Cmax is reported as 115 (65.4) ng/mL and the Tmax is reported as 1.5 (0.09) hr.
In the same order, the values of `C[C@H](OC(=O)[C@@H]1CCCN1)[C@H](OC(=O)[C@@H]1CCCN1)[C@H]1CNc2nc(N)[nH]c(=O)c2N1` [Example 12, Pyrrolidine-2-carboxylic acid 1-(2-amino-4-oxo-3,4,5,6,7,8-hexahydro-pteridin-6-yl)-2-(pyrrolidine-2-carbonyloxy)-propyl ester trihydrochloride] are 438 (211) ng hr/mL, 73.6 (42.9) ng/mL and 3.0 (1.0) hr.
In the case of `CC(C)[C@H](N)C(=O)O[C@@H]([C@H](C)OC(=O)[C@@H](N)C(C)C)[C@H]1CNc2nc(N)[nH]c(=O)c2N1` [Example 10, 2-Amino-3-methyl-butyric acid 2-(2-amino-3-methyl-butyryloxy)-1-(2-amino-4-oxo-3,4,5,6,7,8-hexahydro-pteridin-6-yl)-propyl ester trihydrochloride], the AUC0-t is given as 625 (294) ng hr/mL and the Cmax is on record as 138 (123) ng/mL. Where the note is “cynomolgus monkey, plasma, read-out: Tmax”, the Tmax amounted to 1.83 h.
